From PMC9653453, “Development of truncated elastin-like peptide analogues with improved temperature-response and self-assembling properties” (Scientific Reports, 2022)
Several values for one entry are separate records, joined by “and”; a condition that tells them apart may be missing. Identical values can stand only once. Ends that are not written are not given here.

Assays:
[1] = Turbidity measurement (phase transition temperature Tt, coacervation) in phosphate buffer pH 7.4; type: physicochemical; settings: peptide 1.0 mg/mL, turbidity at 400 nm, heating 0.5 ℃/min from 5 ℃, half-maximal turbidity, mean ± SE, at least three measurements
[2] = RP-UPLC retention time, used as measure of peptide hydrophobicity; type: physicochemical; settings: RP-UPLC-MS; chromatographic
Description: Peptide synthesis was carried out using the conventional solid-phase peptide synthesis procedure (see supplementary information). The synthesized peptides were purified using RP-HPLC. The purity and molecular weight of each peptide were confirmed using RP-UPLC-MS (Table S1 and Fig. S1). […]
Retention times of each peptide were determined by RP-UPLC-MS.

[3] = Turbidity measurement (phase transition temperature Tt, coacervation) in phosphate buffer pH 7.4; type: physicochemical; settings: for Tt, phase transition temperature: heating 0.5 ℃/min from 5 ℃, mean ± SE, at least three measurements; for Coacervation on heating (in words): peptide 50 mg/mL (69.5 mM)
Description: Turbidity measurements were performed in accordance with previous reports. The temperature-dependent self-assembling properties of the ELP analogues were evaluated using a JASCO V-660 spectral photometer (JASCO Co., Tokyo, Japan). Peptide sample solutions of different concentrations (2.0, 5.0, 10, 20, 30, or 50 mg/mL) were prepared by dissolving each peptide (except for AADAAC-(FPGV)n) in phosphate buffer (27.4 mM Na2HPO4, 17.8 mM NaH2PO4, pH 7.4). AADAAC-(FPGV)4 was dissolved in Tris–HCl buffer solution (50.0 mM Tris, at pH 8.4 or 50.0 mM Tris, 154 mM NaCl, at pH 8.4) to prepare sample solutions of a concentration of 0.5 or 10 mg/mL in the absence or presence of the equimolar amount of CdCl2. Turbidity was measured at 400 nm with increasing or decreasing temperature at a rate of 0.5 ℃/min from 5 ℃. The concentration of each sample solution was measured at least three times. The self-assembling property was described by the phase transition temperature (Tt), which is the temperature at which the turbidity of the solution reaches half the maximum value.

[4] = Dynamic light scattering (DLS) size distribution of coacervates; type: physicochemical; settings: phosphate buffer pH 7.4; for Hydrodynamic diameter (DLS): peptide 10 mg/mL, filtered 0.2 µm; for Temperature-dependent particle size by DLS (in words): 10 to 50 ℃ in 10 ℃ steps, peptide concentrations as in Fig. 3 (2.0-50 mg/mL)
Description: The distribution of the particle size in the truncated ELP analogue solution was analyzed via DLS using Zetasizernano ZS (Malvern Instruments Ltd., Worcestershire, U.K.) in a measurement cell ZEN0112 (Malvern Instruments Ltd.)[33]. Peptide samples of different concentrations (2.0, 10, 20, 30, or 50 mg/mL) were prepared by dissolving each peptide in phosphate buffer (27.4 mM Na2HPO4, 17.8 mM NaH2PO4, pH 7.4) and filtered using the Millex-LG filter (pore size 0.2 µm, Merck Millipore) before measurement. DLS analysis was performed by increasing the temperature at 10 ℃ intervals from 10 to 50 ℃. Measurement duration was selected automatically. Parameter dataset “protein” (dataset: refractive index, 1.450; absorption, 0.001) was used as the material parameter, and parameter dataset “water” (dataset: refractive index, 1.330; viscosity, 0.8872) was chosen as the dispersant parameter. Attenuation was selected automatically. Each concentration was measured at least three times.

[5] = Optical microscopy of peptide aggregates with image analysis of particle size; type: physicochemical; settings: peptide 10 mg/mL, phosphate buffer pH 7.4
Description: The morphology of the coacervates of (FPGVG)4, (FPGV)4, and (FPG)4 was observed using optical microscopy. Light field observation was performed using a Leica DM IL LED microscope (Leica Microsystems CMS, Wetzlar, Germany) equipped with HI PLAN 40 × (Leica Microsystems CMS) and HC PLAN 10 × (Leica Microsystems CMS) objectives. Each peptide was dissolved in phosphate buffer (27.4 mM Na2HPO4, 17.8 mM NaH2PO4, at pH 7.4) to a concentration of 10 mg/mL and applied on a glass slide. Sample imaging was performed below and above the Tt of each peptide using a Thermo Plate TP-CHSQM (Tokai Hit Co., Ltd., Shizuoka, Japan). Sample images above Tt were taken 3 min after the sample reached the target temperature. The details of the image analysis is shown in the Supplementary Information file.
Size distribution of coacervates of ELP analogues formed above the Tt was analyzed using optical microscopy images of each peptide. Image analysis was performed using Image J/Fiji (NIH, USA), an open-source image analysis software.^2 Spatial calibration was carried out using […] in original images. The images of peptide coacervates were converted to a binary image via the menu command Image > Type > 8-bit. Using "analyze particle" command, the Feret diameters of the particles within the image were measured.

[6] = Colorimetric (xylenol orange) determination of Cd^2+ removal by peptide coacervation; settings: peptide 1.0 mg/mL, mean ± SE
Description: Colorimetric analyses of cadmium ions (Cd^2+) were carried out to evaluate the number of metal ions absorbed into the coacervation phase of the peptides by using a spectral photometer (JASCO V-660)[45]. […] The peptide solutions were incubated at 4 ℃ for 3, 6, or 12 h and then at 60 ℃ for 1.5 h to separate into the lower coacervation phase from the upper equilibrium solution phase. After incubation, the peptide solution was immediately centrifuged at room temperature for 2 min (6,200 rpm) to remove aggregates. An aliquot of 333 µL of supernatant of the equilibrium solution phase was added to 600 µL of acetate buffer solution (pH5.4) including 67 μM of XO and incubated for 10 min. Subsequently, the concentrations of Cd^2+ or Zn^2+ were determined by measuring the absorbance at 575 nm or 550 nm, respectively, which corresponds to the absorbance of the metal-XO complex. The amount of metal ions absorbed in the peptide solution was determined by the calibration line, which was prepared in the same manner by using a series of standard CdCl2 or ZnCl2 aqueous solutions of known concentrations. The homogeneity of variances between the concentration of each metal ion in the supernatant and the control solution was confirmed using the F test. The statistical significance of the difference between the concentration of each metal ion in the supernatant and the control solution was determined using the Student's t-test. Results were considered statistically significant at P values of ≤ 0.01.

[7] = peptide 2.0 mg/mL, phosphate buffer pH 7.4, turbidity at 400 nm, half-maximal turbidity
[8] = peptide 5.0 mg/mL, phosphate buffer pH 7.4, turbidity at 400 nm, half-maximal turbidity
[9] = peptide 10 mg/mL, phosphate buffer (27.4 mM Na2HPO4, 17.8 mM NaH2PO4, pH 7.4), turbidity at 400 nm, Tt = temperature at half-maximal turbidity
[10] = phosphate buffer pH 7.4, turbidity at 400 nm

Substance | UPLC retention time (measure of hydrophobicity) [2] [min] | Tt, phase transition temperature [3, 8] [°C] | Tt, phase transition temperature [3, 9] [°C] | Temperature-dependent particle size by DLS (in words) [4] | also measured
FPGVGFPGVGFPGVGFPGVGFPGVG-NH2 [(FPGVG)5, reference compound] | 2.691 | 25.6 ± 1.2 | 20.5 ± 0.1 |  | Tt, phase transition temperature [1]: 56.6 ± 1.3 °C; Tt, phase transition temperature [3, 7]: 39.0 ± 0.2 °C; Hydrodynamic diameter (DLS) ([4]; at 10 ℃, Zetasizer cumulant fit): approximately 3 nm; Hydrodynamic diameter (DLS) ([4]; at temperatures above 20 ℃): 3–5 µm
FPGFPGFPGFPG-NH2 [(FPG)4, H-(FPG)4-NH2] | 1.835 |  |  | formed irreversible aggregates in the aqueous solution at 10 °C | Aggregation behaviour in aqueous solution (in words) ([3]; peptide 10 mg/mL, aqueous solution / phosphate buffer pH 7.4, with elapsed time without a temperature rise): formed irreversible aggregates; Morphology of aggregates (optical microscopy, in words) [5]: filamentous aggregates
FPGVFPGVFPGV-NH2 [(FPGV)3] | 1.739 | 71.6 ± 0.8 | 45.2 ± 0.9 | formed sub-micron particles below Tt, which grew into micrometer-sized particles above Tt | 
FPGVFPG-NH2 [(FPGV)(FPG)] | 0.466 |  |  | did not show micrometer-sized particles | Coacervation on heating (in words) [3, 10]: did not show coacervation
FPGVFPGVFPGVFPGV-NH2 [(FPGV)4] | 2.431 | 23.4 ± 0.1 | 17.0 ± 0.2 | rapidly formed micrometer-sized particles at 20 °C | Tt, phase transition temperature [1]: 51.3 ± 0.1 °C; Tt, phase transition temperature [3, 7]: 36.7 ± 0.3 °C; Morphology of aggregates (optical microscopy, in words) [5]: spherical aggregates; Particle size of coacervates (optical microscopy image analysis, Feret diameter) ([5]; above Tt ((FPGVG)4 40 °C, (FPGV)4 25 °C), ImageJ/Fiji): 2–4 µm; Concentration of metal ion in the supernatant ([6]; Cd^2+ (0.236 mM CdCl2), incubation 12 h at 4 ℃ then 60 ℃ 1.5 h, Tris-HCl (50.0 mM Tris, 599 mM NaCl, pH 8.0), at least three measurements): 19.0 ± 0.97 ppm; Removal efficiency ([6]; Cd^2+, incubation 12 h, versus control without peptide): 27.2% and 27.2 ± 0.04%
VFPGVFPGVFPGVFPG-NH2 [(VFPG)4, H-(VFPG)n-NH2 (n = 4)] | 2.493 |  | 45.3 ± 0.6 |  | 
FPGVFPGV-NH2 [(FPGV)2] | 0.583 |  |  | did not show micrometer-sized particles | Turbidity change / coacervation on heating (in words) ([3]; peptide 30 mg/mL (36.7 mM), phosphate buffer pH 7.4, turbidity at 400 nm): did not exhibit turbidity change
FPGFPGV-NH2 [(FPG)(FPGV), H-(FPG)(FPGV)-NH2] | 0.760 |  |  | did not show micrometer-sized particles | Coacervation on heating (in words) [3, 10]: did not show coacervation
